What was measured:
HMEC, HBL100, and MCF10A = test: Apoptosis in non-transformed mammary epithelial cell lines (FACS, sub-G1); format: cell-based, human; details: normal mammary epithelial cells expressing SMCT1
Description: (§1) Cell cycle analysis: Cells were fixed in 50% ethanol, treated with 0.1% sodium citrate, 1 mg/ml RNase A, and 50 μg/ml propidium iodide, and subjected to FACS (Becton Dickinson FacsCaliber) analysis. Cells with DNA content below Cl were scored as apoptotic population.

MCF7, T47D, and ZR75.1 = test: Apoptosis in breast tumor cell lines (FACS, sub-G1); format: cell-based, human
Description: as §1

[1] = test system: SMCT1 and C/EBPδ expression; test: Induction of SMCT1 and C/EBPδ expression in MCF7 cells (RT-PCR); format: cell-based, human; details: NaB 5 mM, TSA 1 μM, MAA 5 mM, VPA 2 mM, 18 or 24 h
Description: RT-PCR: Two μg of RNA was reverse transcribed using the Gene Amp PCR system (Roche) according to the manufacturer's instructions. Amplification of cDNA corresponding to mouse [NT] (sense) (SEQ ID NO:9), [NT] (anti-sense) (SEQ ID NO: 10)], mouse [NT] (sense) (SEQ ID NO:11), [NT] (anti-sense) (SEQ ID NO:12)], human [NT] (sense) (SEQ ID NO:13), [NT] (anti-sense) (SEQ ID NO:14)], and human C/EBPδ [[NT] (sense) (SEQ ID NO:15), [NT] (anti-sense) (SEQ ID NO:16)] was carried out using HPRT1 (hypoxanthine guanine phosphoribosyl transferase 1) as an internal control.

[2] = test system: all three isoforms of NOS; details: read-out: Km for arginine; cited from earlier work
HDAC = HDAC activity in a cell-free system with MCF7 cell lysate; format: biochemical, human
Description: Measurement of HDAC activity in a cell-free system: This was done using a commercially available assay kit (BioVision). MCF7 cell lysate was used as a source of HDAC activity. 50 μg of lysate protein was incubated with various monocarboxylates (1 mM), or trichostatin A (20 μM), and the reaction was initiated by the addition of HDAC substrate. The reaction was then terminated and the deacetylated product was measured according to the manufacturer's instructions. The activity is expressed in nmoles of deacetylated product formed per μg of MCF7 cell lysate protein per 30 min.

[3] = test system: MCF7 cells transfected with SMCT1 cDNA; test: Colony formation assay in MCF7 cells transfected with SMCT1 cDNA; format: cell-based, human; details: SMCT1-expressing MCF7 cells

| Compound | Induction of apoptosis (MCF7, T47D, and ZR75.1) | Induction of SMCT1 and C/EBPδ expression [1] | also measured |
| --- | --- | --- | --- |
| CC(/C=C/C(=O)NO)=C\[C@@H](C)C(=O)c1ccc(N(C)C)cc1 [trichostatin A] | cause apoptosis specifically in tumor cell lines | induce the expression of both genes | Induction of apoptosis (HMEC, HBL100, and MCF10A): does not induce apoptosis |
| N=C(N)NCCC[C@H](N)C(=O)O [arginine] | – | – | Km [2]: 3 to 30 µM |
| CC(O)C(=O)O (stereo not shown) [lactate] | – | – | HDAC inhibition (in words) (HDAC): does not; Effect on cell growth / apoptosis [3]: no effect on cell growth |
| COCC(=O)O [methoxyacetate, methoxyacetic acid] | do not have any effect on apoptosis | no or little activity | – |
| CCCC(CCC)C(=O)O [valproate, valproic acid] | do not have any effect on apoptosis | no or little activity | – |
